This note sets out measurements from patent publication US12611431B2, “Approach to sustained production and delivery of nitric oxide and S-nitrosothiols” (Albert Einstein College of Medicine, priority 2020, dated 2026).

Data set [1] is described as follows: NO release rate measured with a Sievers 280i nitric oxide analyzer. Type of data set: physicochemical. The protocol:
NO release rates were measured using a Sievers 280i nitric oxide analyzer (GE Instruments, Boulder, CO). Samples were dispersed in 5 mL tryptic soy broth (TSB) or MH 14% w/v in TSB at room temperature. Release kinetics were analyzed using Sievers NOAnalysis software (GE Instruments) with 12 measurements per minute recorded for 280 total minutes.

The subject of data set [2] is Pseudomonas aeruginosa planktonic isolates (PA1 strain). In words: Colony forming unit (CFU) assay, titration of nitrite dose with MH. Format: cell-based. As to conditions: PA1, 6 hours at 37° C.; MH or nitrite (10 mM) alone.
Method: An overnight-grown culture of the PA1 strain in TSB was diluted to 10^8 cells/mL based on McFarland equivalence turbidity standard No. 0.5 (Thermo Fisher Scientific) and then adjusted to 10^5 cells/mL in TSB. Suspensions were treated with MH, nitrite, and serial dilutions of nitrite from 10 mM to 1 μM combined with MH. Untreated bacteria were used as negative controls. Bacterial suspensions were mixed using a tube rotator to ensure uniform distribution of bacteria and then incubated at 37° C. for 6 hours. Suspensions were then diluted in PBS and plated on TSA. Bacterial viability was determined by counting the number of colonies established on an agar plate after overnight incubation at 37° C.
Data set [3] deals with Pseudomonas aeruginosa biofilm, PA1 strain. In words: Biofilm viability and volume by live/dead staining and CLSM, PA1 strain. Type of data set: cell-based. As to conditions: 6 hours, MH 14% w/v, nitrite 10 mM.
Method: (§1) A culture of PA, grown overnight in TSB, was diluted to 10^8 cells/mL. The bacterial suspension was then adjusted to 10^5 cells/mL in TSB and inoculated into an 8 well LabTek II Chambered #15 Coverglass System (Thermo Fisher Scientific). The chamber system was incubated at 37° C. for 48 hours. The media was replenished after 24 hours to maintain bacterial viability.
(§2) Established biofilms were divided into four treatment groups: 1) negative control with untreated bacterial suspension, 2) MH, 3) nitrite (10 mM), and 4) MH administered with nitrite (10 mM). Bacteria were treated with the appropriate treatment solution, as above, for 6 hours under complete darkness at 37° C. followed by washing with PBS. Staining was performed using the BacLight LIVE/DEAD Bacterial Viability kit (Invitrogen, Carlsbad, CA). The LIVE/DEAD kit solution constituting Syto9 and propidium iodide was then applied to each well of the chamber slide system for 1 hour at room temperature in darkness. After incubation, each sample was rinsed with PBS and incubated in 10% buffered formalin for 20 minutes at room temperature in darkness. […]
(§3) Images of biofilms were taken using a TCS SP5 CLSM (Leica Microsystems, Wetzlar, Germany) configured to a 488-nm argon laser with a 63× objective. […] Volocity software (PerkinElmer, Waltham, MA) was used to quantify biofilm viability and biomass in each Z-stack.
Data set [4] deals with Pseudomonas aeruginosa biofilm, ATCC 15692 strain. Put plainly: Biofilm viability and volume by live/dead staining and CLSM, ATCC 15692 strain. As to conditions: ATCC 15692 biofilm, 6 hours; MH 14% w/v, nitrite 10 mM, SNO-MP/B-MP 10 mg/mL.
Method: as §1, §2, §3
Where [5] appears, read: over 280 minutes, nitrite 5 mM, MH 14% w/v, SNO-MP and blank-MP 5 mg/mL, TSB, room temperature.

Consider `O=NO` [nitrite, sodium nitrite], for which, in data set [1] (280 minutes, neutral pH, nitrite 5 mM, MH 14% w/v, SNO-MP 5 mg/mL), the “NO release curve, key points in words (FIG. 1)” value was “no NO production”. The NO detected result in data set [1] (nitrite 5 mM in tryptic soy broth, room temperature) is “less than 0.1 ppm”. In data set [1] (setting [5]), the “NO release, mean” value stood at 0.004±0.001 ppm and the “NO release, range” value was 0.003-0.009 ppm. Also, the “reduction in CFU versus controls” value in data set [2] is recorded as “did not have a significant effect”. Further, the “reduction in biofilm volume relative to control” value in data set [3] (SNO-MP 10 mg/mL) stood at 43.9%. Also, in data set [3] (SNO-MP/B-MP 10 mg/mL), the “reduction in live cells (cell viability) relative to control” value was “did not significantly reduce”. In addition, in data set [4], the “reduction in live cells (cell viability) relative to control” value was “did not significantly reduce”.
